≈ marks a conversion by molar mass, not a printed value.

Drawing on ChEMBL document CHEMBL5126519, “Tuberculosis drug discovery: Progression and future interventions in the wake of emerging resistance” (Eur J Med Chem, 2022), this text covers MIC and MIC99 for four compounds.

The subject of assay [1] is Mycobacterium tuberculosis. Kind of assay: Antimycobacterial activity against drug-resistant Mycobacterium tuberculosis. The class given is functional.
Assay [2] relates to Mycobacterium tuberculosis. As to the kind of experiment: Antimycobacterial activity against extensively drug-resistant Mycobacterium tuberculosis. The class given is functional.

Take `CCNC(=O)Nc1nc2nc(-c3cnc(C(C)(C)O)nc3)c(F)c([C@H]3CCCO3)c2[nH]1`: the MIC (commonly the lowest concentration that inhibits growth of the organism) in assay [1] amounted to 0.08 µg/mL (≈ 0.186 µM).
Take `Cc1cc(/C=C/c2ccc3cc(N(C)C)ccc3[n+]2C)c(C)n1-c1ccccc1.Cc1cc(/C=C/c2ccc3cc(N(C)C)ccc3[n+]2C)c(C)n1-c1ccccc1.O=C(O)c1cc2ccccc2c(Cc2c(O)c(C(=O)O)cc3ccccc23)c1O`: in assay [1], the MIC99 (in general, the lowest concentration that inhibits either 99% of growth or 99% of the strains tested, depending on the study) was 1.55 µg/mL.
With `O=[N+]([O-])c1cn2c(n1)OC[C@@H](OCc1ccc(OC(F)(F)F)cc1)C2` [PRETOMANID], the MIC in assay [1] came to 0.03 µg/mL (≈ 0.0835 µM).
Take `C[C@@H](O)[C@H]1C(=O)N2C(C(=O)O)=C(SC3CN(C4=NCCS4)C3)[C@H](C)[C@H]12` [TEBIPENEM]: 0.3 µM (≈ 0.115 µg/mL) was the least that counted as inhibitory in assay [2] (MIC). In other words, the sub-micromolar range.
